From the supplement of paper PMC11061612

How the values were obtained:
Assay in all cases: combination Emax (second highest fraction inhibited in the dose matrix, 72 h); higher = more inhibition; extreme values may be limits of the assay
[1] = system: SW1990 (Pancreatic Carcinoma)
Summary of the method: (§1)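 After 24 hours at 37°C and 5% CO2 in 1536-well plates, cells in DMEM/F12 or RPMI plus 10% FBS received two-drug dose matrices for 72 hours. Viability came from CellTiter-Glo 2.0 luminescence and was scaled as inhibition, anchored at 0 by vehicle wells and at 1 by blank wells. Combination Emax is taken as the second-highest inhibition in the matrix, and Bliss excess as the observed combination effect less EA + EB − EA·EB, with EA and EB the single-agent effects.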

[2] = system: TE-5 (Esophageal Squamous Cell Carcinoma)
Summary of the method: as §1

SK-N-FI (Neuroblastoma) = system: SK-N-FI (Neuroblastoma)
Summary of the method: as §1

[3] = system: SW1783 (Low Grade Glioma)
Summary of the method: as §1

[4] = system: KARPAS-1106P (B-Cell Non-Hodgkin's Lymphoma)
Summary of the method: as §1

SN12C (Kidney Carcinoma) = system: SN12C (Kidney Carcinoma)
Summary of the method: as §1

[5] = system: HT-29 (Colorectal Carcinoma)
Summary of the method: as §1

[6] = system: LS-513 (Colorectal Carcinoma)
Summary of the method: as §1

NCI-H2595 (Mesothelioma) = system: NCI-H2595 (Mesothelioma)
Summary of the method: as §1

[7] = system: MDA-MB-157 (Breast Carcinoma)
Summary of the method: as §1

[8] = system: DB (B-Cell Non-Hodgkin's Lymphoma)
Summary of the method: as §1

[9] = system: SW1088 (Low Grade Glioma)
Summary of the method: as §1

DSH1 (Bladder Carcinoma) = system: DSH1 (Bladder Carcinoma)
Summary of the method: as §1

[10] = system: MFH-ino (Other Solid Carcinomas)
Summary of the method: as §1

Row | Structure (SMILES) | combination Emax [1] | combination Emax [2] | combination Emax (SK-N-FI (Neuroblastoma)) | combination Emax [3] | combination Emax [4] | combination Emax (SN12C (Kidney Carcinoma)) | combination Emax [5] | combination Emax [6] | combination Emax (NCI-H2595 (Mesothelioma)) | combination Emax [7] | combination Emax [8] | combination Emax [9] | combination Emax (DSH1 (Bladder Carcinoma)) | combination Emax [10]
1 | CS(=O)(=O)CCNCc1ccc(-c2ccc3ncnc(Nc4ccc(OCc5cccc(F)c5)c(Cl)c4)c3c2)o1 [Lapatinib] + Cn1cnc2c(F)c(Nc3ccc(Br)cc3Cl)c(C(=O)NOCCO)cc21 [Selumetinib] (first compound max 10 µM, 7x7, partner max 10 µM) | 0.465 | 0.369 | 0.582 | 0.216 | 0.617 | 0.28 | 0.958 | 0.949 | 0.25 | 0.262 | 0.63 | 0.349 | 0.802 | 0.462
2 | CN(CCO)CC[C@H](CSc1ccccc1)Nc1ccc(S(=O)(=O)NC(=O)c2ccc(N3CCC([C@@H](O)c4ccccc4-c4ccc(Cl)cc4)CC3)cc2)cc1S(=O)(=O)C(F)(F)F [AZD4320] + CS(=O)(=O)CCNCc1ccc(-c2ccc3ncnc(Nc4ccc(OCc5cccc(F)c5)c(Cl)c4)c3c2)o1 [Lapatinib] (first compound max 1 µM, 7x7, partner max 10 µM) | 0.302 | 0.888 | 0.578 | 0.883 | 0.401 | 0.347 | 0.928 | 0.956 | 0.329 | 0.328 | 1 | 0.388 | 1 | 0.262
3 | CC1(C)CCC(CN2CCN(c3ccc(C(=O)NS(=O)(=O)c4ccc(NCC5CCOCC5)c([N+](=O)[O-])c4)c(Oc4cnc5[nH]ccc5c4)c3)CC2)=C(c2ccc(Cl)cc2)C1 [Venetoclax] + CS(=O)(=O)CCNCc1ccc(-c2ccc3ncnc(Nc4ccc(OCc5cccc(F)c5)c(Cl)c4)c3c2)o1 [Lapatinib] (first compound max 1 µM, 7x7, partner max 10 µM) | 0.174 | 0.218 | 0.223 | 0.207 | 0.419 | 0.222 | 0.731 | 0.615 | 0.197 | 0.172 | 0.949 | 0.254 | 0.747 | 0.0533
4 | Cc1c2c(nn1C)CSCc1cc(n(C)n1)CSc1cc(c3ccccc3c1)OCCCc1c(C(=O)O)n(C)c3c-2c(Cl)ccc13 [AZD5991] + CS(=O)(=O)CCNCc1ccc(-c2ccc3ncnc(Nc4ccc(OCc5cccc(F)c5)c(Cl)c4)c3c2)o1 [Lapatinib] (first compound max 1 µM, 7x7, partner max 10 µM) | 0.295 | 0.308 | 0.562 | 0.165 | 0.893 | 0.249 | 0.783 | 0.822 | 0.361 | 0.883 | 1 | 0.36 | 0.991 | 0.234
5 | O=C(c1cc(Cc2n[nH]c(=O)c3ccccc23)ccc1F)N1CCN(C(=O)C2CC2)CC1 [Olaparib] + COc1nnc2ccc(N3CCC(c4ccc(OCCN5CCN(C)C(=O)[C@H]5C)cc4)CC3)nn12 [AZD5153] (first compound max 10 µM, 7x7, partner max 1 µM) | 0.195 | 0.347 | 0.489 | 0.319 | 0.791 | 0.255 | 0.658 | 0.591 | 0.273 | 0.438 | 0.74 | 0.392 | 0.647 | 0.346
6 | C[C@@H](Nc1cc(F)cc(F)c1)c1cc(C(=O)N(C)C)cc2c(=O)cc(N3CCOCC3)oc12 [AZD8186] + C1CN(CCC1(C(=O)N[C@@H](CCO)C2=CC=C(C=C2)Cl)N)C3=NC=NC4=C3C=CN4 [AZD5363] (first compound max 10 µM, 7x7, partner max 10 µM) | 0.188 | 0.35 | 0.335 | 0.479 | 0.755 | 0.149 | 0.449 | 0.534 | 0.24 | 0.264 | 0.0629 | 0.742 | 0.327 | 0.348
7 | N#Cc1cnc(Nc2cc(NC[C@H]3CNCCO3)c(C(F)(F)F)cn2)cn1 [SRA737] + O=c1[nH]cc(F)c(=O)[nH]1 [5-Fluorouracil] (first compound max 10 µM, 7x7, partner max 20 µM) | 0.515 | 0.24 | 0.601 | 0.318 | 0.881 | 0.0841 | 0.696 | 0.644 | 0.132 | 0.926 | 0.236 | 0.691 | 0.414 | 0.314
8 | O=C(c1cc(Cc2n[nH]c(=O)c3ccccc23)ccc1F)N1CCN(C(=O)C2CC2)CC1 [Olaparib] + CN(CC[C@H](CSC1=CC=CC=C1)NC2=C(C=C(C=C2)S(=O)(=O)NC(=O)C3=CC=C(C=C3)N4CCC(CC4)[C@H](C5=CC=CC=C5C6=CC=C(C=C6)Cl)O)S(=O)(=O)C(F)(F)F)CCO [AZD4320] (first compound max 10 µM, 7x7, partner max 1 µM) | 0.328 | 0.238 | 0.144 | 0.289 | 0.498 | 0.18 | 0.104 | 0.452 | 0.228 | 0.216 | 0.923 | 0.147 | 0.512 | 0.108
9 | N#Cc1cnc(Nc2cc(NC[C@H]3CNCCO3)c(C(F)(F)F)cn2)cn1 [SRA737] + CCc1c2c(nc3ccc(O)cc13)-c1cc3c(c(=O)n1C2)COC(=O)[C@]3(O)CC [SN-38] (first compound max 10 µM, 7x7, partner max 0.3 µM) | 0.519 | 0.851 | 0.606 | 0.857 | 0.902 | 0.627 | 0.903 | 0.742 | 0.389 | 0.955 | 0.988 | 0.736 | 0.95 | 0.704
10 | N#Cc1cnc(Nc2cc(NC[C@H]3CNCCO3)c(C(F)(F)F)cn2)cn1 [SRA737] + Nc1ccn([C@@H]2O[C@H](CO)[C@@H](O)C2(F)F)c(=O)n1 [Gemcitabine] (first compound max 10 µM, 7x7, partner max 0.3 µM) | 0.505 | 0.633 | 0.752 | 0.729 | 0.951 | 0.664 | 0.853 | 0.801 | 0.397 | 0.905 | 0.931 | 0.626 | 0.972 | 0.738
11 | Cc1c2c(nn1C)CSCc1cc(n(C)n1)CSc1cc(c3ccccc3c1)OCCCc1c(C(=O)O)n(C)c3c-2c(Cl)ccc13 [AZD5991] + CC(=O)O[C@H]1C(=O)[C@@]2(C)[C@H]([C@H](OC(=O)c3ccccc3)[C@]3(O)C[C@H](OC(=O)[C@H](O)[C@@H](NC(=O)c4ccccc4)c4ccccc4)C(C)=C1C3(C)C)[C@]1(OC(C)=O)CO[C@@H]1C[C@@H]2O [Paclitaxel] (first compound max 1 µM, 7x7, partner max 3 µM) | 0.496 | 0.699 | 0.621 | 0.706 | 0.951 | 0.44 | 0.77 | 0.893 | 0.703 | 0.977 | 1 | 0.776 | 0.963 | 0.416
12 | Cc1c2c(nn1C)CSCc1cc(n(C)n1)CSc1cc(c3ccccc3c1)OCCCc1c(C(=O)O)n(C)c3c-2c(Cl)ccc13 [AZD5991] + Nc1ccn([C@@H]2O[C@H](CO)[C@@H](O)C2(F)F)c(=O)n1 [Gemcitabine] (first compound max 1 µM, 7x7, partner max 0.3 µM) | 0.353 | 0.75 | 0.457 | 0.673 | 0.981 | 0.422 | 0.6 | 0.814 | 0.464 | 0.878 | 1 | 0.197 | 1 | 0.725
13 | C=CCn1c(=O)c2cnc(Nc3ccc(N4CCN(C)CC4)cc3)nc2n1-c1cccc(C(C)(C)O)n1 [AZD1775] + Nc1ccn([C@@H]2O[C@H](CO)[C@@H](O)C2(F)F)c(=O)n1 [Gemcitabine] (first compound max 1 µM, partner max 0.3 µM) | 0.384 | 0.568 | 0.616 | 0.684 | 0.94 | 0.576 | 0.884 | 0.839 | 0.344 | 0.917 | 0.952 | 0.581 | 0.923 | 0.68
14 | C=CCn1c(=O)c2cnc(Nc3ccc(N4CCN(C)CC4)cc3)nc2n1-c1cccc(C(C)(C)O)n1 [AZD1775] + CCc1c2c(nc3ccc(O)cc13)-c1cc3c(c(=O)n1C2)COC(=O)[C@]3(O)CC [SN-38] (first compound max 1 µM, partner max 0.3 µM) | 0.542 | 0.875 | 0.586 | 0.825 | 0.924 | 0.587 | 0.929 | 0.771 | 0.318 | 0.967 | 0.985 | 0.712 | 0.999 | 0.737
